MIC data for 25 molecules are collected here from US11117915B2, “Antibacterial aminoglycoside analogs” (Cipla USA, Inc., priority 2007, dated 2021).

Test [1] relates to P. aeruginosa ATCC 27853. The test is described as follows: MIC assay, CLSI broth microdilution, P. aeruginosa ATCC 27853 (APAE001). Format: cell-based. Conditions: Pseudomonas aeruginosa, ATCC27853, 20 h, read-out: MIC APAE001. The method, boiled down:
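CLSI M7-A7 broth microdilution; 2-fold serial dilutions in Mueller Hinton Broth, 1:1 with inoculum; final 5×10^5 CFU/mL; 35° C., 20 h, ambient air. QC strains E. coli ATCC 25922, P. aeruginosa ATCC 27853, S. aureus ATCC 29213.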
In general terms: Dilution methods test growth across graded concentrations, often in twofold steps.

Test [2] deals with E. coli ATCC 25922. The test can be described thus: MIC assay, CLSI broth microdilution, E. coli ATCC 25922 (AECO001). Conditions: Escherichia coli, ATCC25922, 20 h, read-out: MIC AECO001. Format: cell-based. The method, boiled down: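 CLSI broth microdilution (M7-A7): two-fold compound dilutions in Mueller Hinton Broth, inoculum 5×10^5 CFU/mL final. Plates incubated 20 hours at 35° C. in ambient air; MIC read as lowest inhibitory concentration.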

≈ marks a conversion by molar mass, not a printed value. A value given as a limit tells only on which side of the number the result lay.

Regarding `CN[C@@H]1[C@@H](O)[C@@H](O[C@@H]2[C@@H](O)[C@H](O[C@H]3OC(CNC[C@H]4C[C@H](N)C4)=CC[C@H]3N)[C@@H](N)C[C@H]2NC(=O)C2(O)CCNC2)OC[C@]1(C)O` (stereo partly drawn) [Example 78, 6′-(Methyl-trans-3-amino-cyclobutyl)-1-(3-hydroxy-pyrrolidin-3-yl-acetyl)-sisomicin], the MIC is 1 to 16 µg/mL (≈ 1.55 to 24.9 µM) in test [1] and less than 1 µg/mL in test [2].

Consider `CN[C@@H]1[C@@H](O)[C@@H](O[C@@H]2[C@@H](O)[C@H](O[C@H]3OC(CNCC4(CN)CC4)=CC[C@H]3N)[C@@H](N)C[C@H]2NC(=O)C2(O)CCNC2)OC[C@]1(C)O` (some centres unmarked) [Example 79], for which the figures for the minimal inhibitory concentration (MIC) in test [1] and in test [2] were more than 16 µg/mL and 1 to 16 µg/mL (≈ 1.55 to 24.9 µM), respectively.

Regarding `CN[C@@H]1[C@@H](O)[C@@H](O[C@@H]2[C@@H](O)[C@H](O[C@H]3OC(CNCCCC(O)CN)=CC[C@H]3N)[C@@H](N)C[C@H]2NC(=O)[C@@H](O)CN)OC[C@]1(C)O` (stereo partly drawn) [Example 80, 6′-(4-Hydroxy-5-amino-pentyl)-1-(3-amino-2(S)-hydroxy-propionyl)-sisomicin], the minimal inhibitory concentration (MIC) in test [1] and in test [2] was less than 1 µg/mL throughout.

On to `CN[C@@H]1[C@@H](O)[C@@H](O[C@@H]2[C@@H](O)[C@H](O[C@H]3OC(CNCCNC4CNC4)=CC[C@H]3N)[C@@H](N)C[C@H]2NC(=O)[C@@H](O)CN)OC[C@]1(C)O` [Example 81, 6′-(N-(Azetidin-3-yl)-2-amino-ethyl)-1-(3-amino-2(S)-hydroxy-propionyl)-sisomicin], for which the MIC in test [1] was more than 16 µg/mL; in test [2] it was 1 to 16 µg/mL (≈ 1.58 to 25.3 µM).

On to `CN[C@@H]1[C@@H](O)[C@@H](O[C@@H]2[C@@H](O)[C@H](O[C@H]3OC(CNCC(O)CN)=CC[C@H]3N)[C@@H](N)C[C@H]2NC(=O)C(O)C2CNC2)OC[C@]1(C)O` (some centres unmarked) [Example 82, 6′-(2-Hydroxy-3-amino-propyl)-1-(2-(azetidin-3-yl)-2-hydroxy-acetyl)-sisomicin], for which the MIC is more than 16 µg/mL in test [1] and 1 to 16 µg/mL (≈ 1.58 to 25.2 µM) in test [2].

For the molecule `CN[C@@H]1[C@@H](O)[C@@H](O[C@@H]2[C@@H](O)[C@H](O[C@H]3OC(CNCC4(O)CC(N)C4)=CC[C@H]3N)[C@@H](N)C[C@H]2NC(=O)C(O)C2CNC2)OC[C@]1(C)O` (some centres unmarked) [Example 83, 6′-(Methyl-3-amino-1-hydroxy-cyclobutyl)-1-(2-(azetidin-3-yl)-2-hydroxy-acetyl)-sisomicin], the MIC was more than 16 µg/mL in test [1] and 1 to 16 µg/mL (≈ 1.52 to 24.3 µM) in test [2].

For `CN[C@@H]1[C@@H](O)[C@@H](O[C@@H]2[C@@H](O)[C@H](O[C@H]3OC(CN)=CC[C@H]3NCC3CCNC3)[C@@H](N)C[C@H]2NC(=O)[C@@H](O)CCN)OC[C@]1(C)O` (stereo partly drawn) [Example 84, 2′-(Methyl-pyrrolidin-3-yl)-1-(4-amino-2(S)-hydroxy-butyryl)-sisomicin], the MIC in test [1] is 1 to 16 µg/mL (≈ 1.58 to 25.3 µM); in test [2] it was less than 1 µg/mL.

Regarding `CN[C@@H]1[C@@H](O)[C@@H](O[C@@H]2[C@@H](O)[C@H](O[C@H]3OC(CN)=CC[C@H]3NCC3CCCN3)[C@@H](N)C[C@H]2NC(=O)[C@@H](O)CCN)OC[C@]1(C)O` (stereo partly drawn) [Example 85, 2′-(Methyl-pyrrolidin-2-yl)-1-(4-amino-2(S)-hydroxy-butyryl)-sisomicin], the MIC in test [1] was 1 to 16 µg/mL (≈ 1.58 to 25.3 µM); in test [2], less than 1 µg/mL.

For the molecule `CNCC(=O)N[C@@H]1CC=C(CN)O[C@@H]1O[C@H]1[C@H](O)[C@@H](O[C@H]2OC[C@](C)(O)[C@H](NC)[C@H]2O)[C@H](NC(=O)[C@@H](O)CCN)C[C@@H]1N` [Example 86, 2′-(N-Methyl-amino-acetyl)-1-(4-amino-2(S)-hydroxy-butyryl)-sisomicin], the MIC in test [1] and in test [2] was 1 to 16 µg/mL (≈ 1.61 to 25.8 µM) in each case.

In the case of `CN[C@@H]1[C@@H](O)[C@@H](O[C@@H]2[C@@H](O)[C@H](O[C@H]3OC(CN)=CC[C@H]3NC(=O)CN)[C@@H](N)C[C@H]2NC(=O)[C@@H](O)CCN)OC[C@]1(C)O` [Example 87, 2′-(2-Amino-acetyl)-1-(4-amino-2(S)-hydroxy-butyryl)-sisomicin], the MIC in test [1] and in test [2] was 1 to 16 µg/mL (≈ 1.65 to 26.4 µM) each time.

`CN[C@@H]1[C@@H](O)[C@@H](O[C@@H]2[C@@H](O)[C@H](O[C@H]3OC(CN)=CC[C@H]3NC(=O)C(C)N)[C@@H](N)C[C@H]2NC(=O)[C@@H](O)CCN)OC[C@]1(C)O` (stereo partly drawn) [Example 88, 2′-(2-Amino-propionyl)-1-(4-amino-2(S)-hydroxy-butyryl)-sisomicin]: the MIC in test [1] and in test [2] was 1 to 16 µg/mL (≈ 1.61 to 25.8 µM) in each case.

Consider `CN[C@@H]1[C@@H](O)[C@@H](O[C@@H]2[C@@H](O)[C@H](O[C@H]3OC(CN)=CC[C@H]3NC(=O)C(O)CN)[C@@H](N)C[C@H]2NC(=O)[C@@H](O)CCN)OC[C@]1(C)O` (stereo partly drawn) [Example 89, 2′-(3-Amino-2-hydroxy-propionyl)-1-(4-amino-2(S)-hydroxy-butyryl)-sisomicin], for which the MIC is 1 to 16 µg/mL (≈ 1.57 to 25.2 µM) in test [1] and less than 1 µg/mL in test [2].

Turning to `CN[C@@H]1[C@@H](O)[C@@H](O[C@@H]2[C@@H](O)[C@H](O[C@H]3OC(CN)=CC[C@H]3NC(=O)C3CCCN3)[C@@H](N)C[C@H]2NC(=O)[C@@H](O)CCN)OC[C@]1(C)O` (some centres unmarked) [Example 90], the results for the MIC in test [1] and in test [2] were 1 to 16 µg/mL (≈ 1.55 to 24.8 µM) and less than 1 µg/mL, respectively.

In the case of `CN[C@@H]1[C@@H](O)[C@@H](O[C@@H]2[C@@H](O)[C@H](O[C@H]3OC(CN)=CC[C@H]3NCCCN)[C@@H](N)C[C@H]2NC(=O)[C@@H](O)CCN)OC[C@]1(C)O` [Example 91, 2′-(3-Amino-propyl)-1-(4-amino-2(S)-hydroxy-butyryl)-sisomicin], the MIC in test [1] and in test [2] was less than 1 µg/mL each time.

`CN[C@@H]1[C@@H](O)[C@@H](O[C@@H]2[C@@H](O)[C@H](O[C@H]3OC(CN)=CC[C@H]3NC(=O)CC3CNCCO3)[C@@H](N)C[C@H]2NC(=O)[C@@H](O)CCN)OC[C@]1(C)O` (stereo partly drawn) [Example 92, 2′-(Morpholin-2-yl-acetyl)-1-(4-amino-2(S)-hydroxy-butyryl)-sisomicin]: the MIC in test [1] is more than 16 µg/mL; in test [2], less than 1 µg/mL.

Take `CN[C@@H]1[C@@H](O)[C@@H](O[C@@H]2[C@@H](O)[C@H](O[C@H]3OC(CN)=CC[C@H]3NS(=O)(=O)CCN)[C@@H](N)C[C@H]2NC(=O)[C@@H](O)CCN)OC[C@]1(C)O` [Example 93, 2′-(2-Amino-ethyl-sulfonamide)-1-(4-amino-2(S)-hydroxy-butyryl)-sisomicin]: the MIC is 1 to 16 µg/mL (≈ 1.52 to 24.4 µM) in test [1] and less than 1 µg/mL in test [2].

Turning to `CN[C@@H]1[C@@H](O)[C@@H](O[C@@H]2[C@@H](O)[C@H](O[C@H]3OC(CN)=CC[C@H]3NCC(C)(C)CN(C)C)[C@@H](N)C[C@H]2NC(=O)[C@@H](O)CCN)OC[C@]1(C)O` [Example 94, 2′-(N, N-Dimethyl-2,2-dimethyl-3-amino-propyl)-1-(4-amino-2(S)-hydroxy-butyryl)-sisomicin], the values for the MIC in test [1] and in test [2] were more than 16 µg/mL and 1 to 16 µg/mL (≈ 1.51 to 24.2 µM), respectively.

In the case of `CN[C@@H]1[C@@H](O)[C@@H](O[C@@H]2[C@@H](O)[C@H](O[C@H]3OC(CN)=CC[C@H]3NC[C@H](C)N)[C@@H](N)C[C@H]2NC(=O)[C@@H](O)CCN)OC[C@]1(C)O` [Example 95, 2′-(2(S)-Amino-propyl)-1-(4-amino-2(S)-hydroxy-butyryl)-sisomicin], the results for the MIC in test [1] and in test [2] were more than 16 µg/mL and less than 1 µg/mL, respectively.

As to `CN[C@@H]1[C@@H](O)[C@@H](O[C@@H]2[C@@H](O)[C@H](O[C@H]3OC(CN)=CC[C@H]3NCC(N)CO)[C@@H](N)C[C@H]2NC(=O)[C@@H](O)CCN)OC[C@]1(C)O` (stereo partly drawn) [Example 97, 2′-(2-Amino-propanol)-1-(4-amino-2(S)-hydroxy-butyryl)-sisomicin], the MIC in test [1] is 1 to 16 µg/mL (≈ 1.61 to 25.7 µM); in test [2], less than 1 µg/mL.

Consider `CN[C@@H]1[C@@H](O)[C@@H](O[C@@H]2[C@@H](O)[C@H](O[C@H]3OC(CN)=CC[C@H]3NCCO)[C@@H](N)C[C@H]2NC(=O)[C@@H](O)CCN)OC[C@]1(C)O` [Example 98, 2′-(2-Hydroxy-ethyl)-1-(4-amino-2(S)-hydroxy-butyryl)-sisomicin], for which the MIC in test [1] and in test [2] was 1 to 16 µg/mL (≈ 1.69 to 27 µM) each time.

Take `CN[C@@H]1[C@@H](O)[C@@H](O[C@@H]2[C@@H](O)[C@H](O[C@H]3OC(CN)=CC[C@H]3NC(=O)C(N)CCCN)[C@@H](N)C[C@H]2NC(=O)[C@@H](O)CCN)OC[C@]1(C)O` (stereo partly drawn) [Example 99, 2′-(2,5-Diamino-pentoyl)-1-(4-amino-2(S)-hydroxy-butyryl)-sisomicin]: the MIC in test [1] and in test [2] was 1 to 16 µg/mL (≈ 1.51 to 24.1 µM) in each case.

Consider `CN[C@@H]1[C@@H](O)[C@@H](O[C@@H]2[C@@H](O)[C@H](O[C@H]3OC(CN)=CC[C@H]3NCC(O)CO)[C@@H](N)C[C@H]2NC(=O)[C@@H](O)CCN)OC[C@]1(C)O` (stereo partly drawn) [Example 100, 2′-(2-Hydroxy-propanol)-1-(4-amino-2(S)-hydroxy-butyryl)-sisomicin], for which the figures for the MIC in test [1] and in test [2] were more than 16 µg/mL and 1 to 16 µg/mL (≈ 1.61 to 25.7 µM), respectively.

Take `CN[C@@H]1[C@@H](O)[C@@H](O[C@@H]2[C@@H](O)[C@H](O[C@H]3OC(CN)=CC[C@H]3NCC(O)CN)[C@@H](N)C[C@H]2NC(=O)[C@@H](O)CCN)OC[C@]1(C)O` (stereo partly drawn) [Example 101, 2′-(2-Hydroxy-3-amino-propyl)-1-(4-amino-2(S)-hydroxy-butyryl)-sisomicin]: the MIC is 1 to 16 µg/mL (≈ 1.61 to 25.7 µM) in test [1] and less than 1 µg/mL in test [2].

`CN[C@@H]1[C@@H](O)[C@@H](O[C@@H]2[C@@H](O)[C@H](O[C@H]3OC(CN)=CC[C@H]3NCCCCN)[C@@H](N)C[C@H]2NC(=O)[C@@H](O)CCN)OC[C@]1(C)O` [Example 102, 2′-(4-Amino-butyl)-1-(4-amino-2(S)-hydroxy-butyryl)-sisomicin]: the MIC in test [1] is 1 to 16 µg/mL (≈ 1.61 to 25.8 µM); in test [2], less than 1 µg/mL.

Take `CN[C@@H]1[C@@H](O)[C@@H](O[C@@H]2[C@@H](O)[C@H](O[C@H]3OC(CN)=CC[C@H]3NC[C@H]3C[C@H](N)C3)[C@@H](N)C[C@H]2NC(=O)[C@@H](O)CCN)OC[C@]1(C)O` [Example 104, 2′-(Methyl-trans-3-amino-cyclobutyl)-1-(4-amino-2(S)-hydroxy-butyryl)-sisomicin]: the MIC is 1 to 16 µg/mL (≈ 1.58 to 25.3 µM) in test [1] and less than 1 µg/mL in test [2].

A word on the MIC: it is the smallest concentration in the dilution series that meets the test's criterion for growth inhibition.
